{"source": "patent US20260355196A1", "about": "“INHIBITORS AND DEGRADERS OF PIP4K PROTEIN” (Larkspur Biosciences, Inc., priority 2023, published 2026)"}
{"target": "T1, PIP4K2C (Homo sapiens, UniProt Q8TBX8)", "T1 sequence (Q8TBX8 1-421)": "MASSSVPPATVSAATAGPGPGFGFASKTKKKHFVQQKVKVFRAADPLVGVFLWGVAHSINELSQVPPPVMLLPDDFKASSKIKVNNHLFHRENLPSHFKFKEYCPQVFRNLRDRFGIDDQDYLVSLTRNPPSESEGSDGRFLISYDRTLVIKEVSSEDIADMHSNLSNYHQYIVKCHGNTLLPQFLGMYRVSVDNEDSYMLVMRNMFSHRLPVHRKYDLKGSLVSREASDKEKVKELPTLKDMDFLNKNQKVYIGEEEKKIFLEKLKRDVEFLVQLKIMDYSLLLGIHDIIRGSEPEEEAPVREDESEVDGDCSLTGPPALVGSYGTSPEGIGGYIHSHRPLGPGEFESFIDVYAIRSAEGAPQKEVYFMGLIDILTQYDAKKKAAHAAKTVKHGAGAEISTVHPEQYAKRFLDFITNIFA", "experiment": "HiBiT PIP4K2C degradation assay in MOLT-4 cells (endogenous PIP4K2C C-terminally tagged with HiBiT)", "type": "cell-based", "parameters": "untagged in primary human PBMCs and monocyte-derived dendritic cells", "settings": "6 hours of incubation time, rather than 24 hours; MOLT-4, top concentration 10 micromolar; read-out: HiBIT-degradation MOLT4 PIP4k2C DC50 (6 hours, marked *)", "summary_of_the_method": "(§1)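 Luminescent HiBiT lytic readout of residual PIP4K2C-HiBiT (CRISPR knock-in, MOLT-4, phenol red-free RPMI-1640 + 10% FBS). Cells exposed 6 or 24 h at 37 C to compound, top 10 micromolar, 3-fold, 10 points, duplicate. Hill fit (Levenberg-Marquardt) gives DC50.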", "units": {"DC50": "nM"}}
{"smiles": "O=C1CCC(Nc2ccc(N3CCN(CC4(F)CCN(C(=O)[C@H]5CC[C@H](Nc6ncc(F)c(-c7cccc(N8CCOCC8=O)c7)n6)CC5)CC4)CC3)c(F)c2)C(=O)N1", "note": "(stereo partly drawn) [Compound 530, trans-3-((3-fluoro-4-(4-((4-fluoro-1-(4-((5-fluoro-4-(3-(3-oxomorpholino)phenyl)pyrimidin-2-yl)amino)cyclohexane-1-carbonyl)piperidin-4-yl)methyl)piperazin-1-yl)phenyl)amino)piperidine-2,6-dione]", "DC50": "< 500"}
{"smiles": "O=C1CCC(Nc2ccc(C3CCN([C@H]4CC[C@H](NC(=O)[C@H]5CC[C@H](Nc6ncc(F)c(-c7cccc(-c8ccccc8)c7)n6)CC5)CC4)CC3)c(F)c2)C(=O)N1", "note": "(stereo partly drawn) [Compound 658, trans-(1r,4R)-4-((4-([1,1′-biphenyl]-3-yl)-5-fluoropyrimidin-2-yl)amino)-N-((1r,4R)-4-(4-(4-((2,6-dioxopiperidin-3-yl)amino)-2-fluorophenyl)piperidin-1-yl)cyclohexyl)cyclohexane-1-carboxamide]", "DC50": "< 500"}
{"smiles": "O=C1CC[C@H](Nc2ccc(C3CCN([C@H]4CC[C@H](NC(=O)[C@H]5CC[C@H](Nc6ncc(F)c(-c7cccc(-n8ccccc8=O)c7)n6)CC5)CC4)CC3)c(F)c2)C(=O)N1", "note": "(single isomer, unassigned) [Compound 434]", "DC50": "< 500"}
{"smiles": "O=C1CC[C@H](Nc2ccc(N3CCC(N4CCC(C(=O)N[C@H]5CC[C@H](Nc6ncc(F)c(-c7cccc(N8CCCOC8=O)c7)n6)CC5)CC4)CC3)c(F)c2)C(=O)N1", "note": "[Compound 542, 1′-(4-(((S)-2,6-dioxopiperidin-3-yl)amino)-2-fluorophenyl)-N-((trans)-4-((5-fluoro-4-(3-(2-oxo-1,3-oxazinan-3-yl)phenyl)pyrimidin-2-yl)amino)cyclohexyl)-[1,4′-bipiperidine]-4-carboxamide]", "DC50": "< 500"}
{"smiles": "Cn1nc(N2CCC(=O)NC2=O)c2cc(F)c(C3CCN(CC4CCN(C(=O)[C@H]5CC[C@H](Nc6ncc(F)c(-c7cccc(-n8ccccc8=O)c7)n6)CC5)CC4)CC3)cc21", "note": "[Compound 540, trans-1-(5-fluoro-6-(1-((1-((1r,4r)-4-((5-fluoro-4-(3-(2-oxopyridin-1(2H)-yl)phenyl)pyrimidin-2-yl)amino)cyclohexane-1-carbonyl)piperidin-4-yl)methyl)piperidin-4-yl)-1-methyl-1H-indazol-3-yl)dihydropyrimidine-2,4(1H,3H)-dione]", "DC50": "> 5000"}
{"smiles": "O=C1CCC(Nc2ccc(C3CCN(C(=O)C4CCN(C(=O)[C@H]5CC[C@H](Nc6ncc(F)c(-c7cccc(-n8ccccc8=O)c7)n6)CC5)CC4)CC3)c(F)c2)C(=O)N1", "note": "(stereo partly drawn) [Compound 669, trans-3-((3-fluoro-4-(1-(1-(4-((5-fluoro-4-(3-(2-oxopyridin-1 (2H)-yl)phenyl)pyrimidin-2-yl)amino)cyclohexane-1-carbonyl)piperidine-4-carbonyl)piperidin-4-yl)phenyl)amino)piperidine-2,6-dione]", "DC50": "< 500"}
{"smiles": "O=C1CCC(Nc2ccc(N3CCC(CC4CCN(C(=O)[C@H]5CC[C@H](Nc6ncc(F)c(-c7cccc(-c8ccc[nH]c8=O)c7)n6)CC5)CC4)CC3)c(F)c2)C(=O)N1", "note": "(stereo partly drawn) [Compound 407, trans-3-((3-fluoro-4-(4-((1-(4-((5-fluoro-4-(3-(2-oxo-1,2-dihydropyridin-3-yl)phenyl)pyrimidin-2-yl)amino)cyclohexane-1-carbonyl)piperidin-4-yl)methyl)piperidin-1-yl)phenyl)amino)piperidine-2,6-dione]", "DC50": "< 500"}
{"smiles": "O=C1CCC(Nc2ccc(N3CCN([C@H]4CC[C@H](NC(=O)[C@H]5CC[C@H](Nc6ncc(F)c(-c7cccc(C8CC8)c7)n6)CC5)CC4)CC3)c(F)c2)C(=O)N1", "note": "(stereo partly drawn) [Compound 557, trans-(1r,4R)-4-((4-(3-cyclopropylphenyl)-5-fluoropyrimidin-2-yl)amino)-N-((1r,4R)-4-(4-(4-((2,6-dioxopiperidin-3-yl)amino)-2-fluorophenyl)piperazin-1-yl)cyclohexyl)cyclohexane-1-carboxamide]", "DC50": "< 500"}
{"smiles": "Cc1ccn(-c2cccc(-c3nc(N[C@H]4CC[C@H](C(=O)N5CCC(CN6CCC(c7ccc(NC8CCC(=O)NC8=O)cc7F)CC6)CC5)CC4)ncc3F)c2)c(=O)c1", "note": "(stereo partly drawn) [Compound 473, trans-3-((3-fluoro-4-(1-((1-(4-((5-fluoro-4-(3-(4-methyl-2-oxopyridin-1 (2H)-yl)phenyl)pyrimidin-2-yl)amino)cyclohexane-1-carbonyl)piperidin-4-yl)methyl)piperidin-4-yl)phenyl)amino)piperidine-2,6-dione]", "DC50": "< 500"}
{"smiles": "O=C1CCC(Nc2ccc(C3CCN(CCC4CCN(C(=O)[C@@H]5CCC[C@H](Nc6ncc(F)c(-c7cccc(-n8ccccc8=O)c7)n6)C5)CC4)CC3)c(F)c2)C(=O)N1", "note": "(stereo partly drawn) [Compound 308, 3-((3-fluoro-4-(1-(2-(1-((1R,3S)-3-((5-fluoro-4-(3-(2-oxopyridin-1(2H)-yl)phenyl)pyrimidin-2-yl)amino)cyclohexane-1-carbonyl)piperidin-4-yl)ethyl)piperidin-4-yl)phenyl)amino)piperidine-2,6-dione]", "DC50": "< 500"}
{"target": "T1, PIP4K2C", "experiment": "HiBiT PIP4K2C degradation assay in MOLT-4 cells (endogenous PIP4K2C C-terminally tagged with HiBiT)", "type": "cell-based", "parameters": "untagged in primary human PBMCs and monocyte-derived dendritic cells", "settings": "24 hours incubation, MOLT-4, top concentration 10 micromolar; read-out: HiBIT-degradation MOLT4 PIP4k2C 24 hours DC50", "summary_of_the_method": "as §1", "units": {"DC50": "nM"}}
{"smiles": "Cn1c(=O)n(C2CCC(=O)NC2=O)c2ccc(C3CCN(C4CCN(CCC(=O)N5CCC(Nc6ncc(Cl)c(-c7cccc(-c8ccc(F)cc8)c7)n6)CC5)CC4)CC3)cc21", "note": "(centres unmarked) [Compound 300, 3-(5-(1′-(3-(4-((5-chloro-4-(4′-fluoro-[1,1′-biphenyl]-3-yl)pyrimidin-2-yl)amino)piperidin-1-yl)-3-oxopropyl)-[1,4′-bipiperidin]-4-yl)-3-methyl-2-oxo-2,3-dihydro-1H-benzo[d]imidazol-1-yl)piperidine-2,6-dione]", "DC50": "< 500"}
{"smiles": "O=C1CCC(Nc2ccc(C3CCN(CC4CCN(CC(=O)N[C@H]5CC[C@H](Nc6ncc(F)c(-c7cccc(-n8ccccc8=O)c7)n6)CC5)CC4)CC3)c(F)c2)C(=O)N1", "note": "(stereo partly drawn) [Compound 313, trans-2-(4-((4-(4-((2,6-dioxopiperidin-3-yl)amino)-2-fluorophenyl)piperidin-1-yl)methyl)piperidin-1-yl)-N-(4-((5-fluoro-4-(3-(2-oxopyridin-1(2H)-yl)phenyl)pyrimidin-2-yl)amino)cyclohexyl)acetamide]", "DC50": "< 500"}
{"smiles": "O=C1CCC(Nc2ccc(C3CCN([C@H]4CC[C@@H](CNC(=O)[C@H]5CCC[C@@H](Nc6ncc(F)c(-c7cccc(-n8ccccc8=O)c7)n6)C5)CC4)CC3)c(F)c2)C(=O)N1", "note": "(relative stereo) [Compound 337, cis-N-((cis-4-(4-(4-((2,6-dioxopiperidin-3-yl)amino)-2-fluorophenyl)piperidin-1-yl)cyclohexyl)methyl)-3-((5-fluoro-4-(3-(2-oxopyridin-1(2H)-yl)phenyl)pyrimidin-2-yl)amino)cyclohexane-1-carboxamide]", "DC50": "< 500"}
{"smiles": "Cc1ccc(=O)n(-c2cccc(-c3nc(N[C@H]4CCC[C@@H](C(=O)N5CCC(CCN6CCC(c7ccc8c(c7)oc(=O)n8C7CCC(=O)NC7=O)CC6)CC5)C4)ncc3F)c2)c1", "note": "(stereo partly drawn) [Compound 354, 3-(6-(1-(2-(1-((1R,3S)-3-((5-fluoro-4-(3-(5-methyl-2-oxopyridin-1(2H)-yl)phenyl)pyrimidin-2-yl)amino)cyclohexane-1-carbonyl)piperidin-4-yl)ethyl)piperidin-4-yl)-2-oxobenzo[d]oxazol-3 (2H)-yl)piperidine-2,6-dione]", "DC50": "< 500"}
{"smiles": "O=C1CCC(n2c(=O)oc3cc(N4CCC(N5CCC(CNC(=O)[C@H]6CCC[C@@H](Nc7ncc(F)c(-c8cccc(-n9ccccc9=O)c8)n7)C6)CC5)CC4)ccc32)C(=O)N1", "note": "(relative stereo) [Compound 299, cis-N-((1′-(3-(2,6-dioxopiperidin-3-yl)-2-oxo-2,3-dihydrobenzo[d]oxazol-6-yl)-[1,4′-bipiperidin]-4-yl)methyl)-3-((5-fluoro-4-(3-(2-oxopyridin-1(2H)-yl)phenyl)pyrimidin-2-yl)amino)cyclohexane-1-carboxamide]", "DC50": "< 500"}
{"smiles": "O=C1CCC(Nc2ccc(N3CCN([C@H]4CC[C@H](CNC(=O)[C@H]5CCC[C@@H](Nc6ncc(F)c(-c7cccc(-n8ccccc8=O)c7)n6)C5)CC4)CC3)c(F)c2)C(=O)N1", "note": "(relative stereo) [Compound 352, cis-N-((trans-4-(4-(4-((2,6-dioxopiperidin-3-yl)amino)-2-fluorophenyl)piperazin-1-yl)cyclohexyl)methyl)-3-((5-fluoro-4-(3-(2-oxopyridin-1(2H)-yl)phenyl)pyrimidin-2-yl)amino)cyclohexane-1-carboxamide]", "DC50": "< 500"}
{"smiles": "Cn1c(=O)n(C2CCC(=O)NC2=O)c2ccc(C3CCN(CCN4CCC(C(=O)N5CCC[C@H](Nc6ncc(Cl)c(-c7cccc(-c8ccccc8)c7)n6)C5)CC4)CC3)cc21", "note": "(stereo partly drawn) [Compound 44, 3-(5-(1-(2-(4-((S)-3-((4-([1,1′-biphenyl]-3-yl)-5-chloropyrimidin-2-yl)amino)piperidine-1-carbonyl)piperidin-1-yl)ethyl)piperidin-4-yl)-3-methyl-2-oxo-2,3-dihydro-1H-benzo[d]imidazol-1-yl)piperidine-2,6-dione]", "DC50": "< 500"}
